{"source": "patent US20040043073A1", "about": "“Pharmaceutical compositions for drugs having pH-dependent solubility” (priority 2002, published 2004)", "origin": "cited, not measured here", "note": "Where two headings read alike, the source gives them in different places.", "data": [{"molecule": "CC[C@H]1OC(=O)[C@H](C)[C@@H](O[C@H]2C[C@@](C)(OC)[C@@H](O)[C@H](C)O2)[C@H](C)[C@@H](O[C@@H]2O[C@H](C)C[C@H](N(C)C)[C@H]2O)[C@](C)(OC)C[C@@H](C)C(=O)[C@H](C)[C@@H](O)[C@]1(C)O", "note": "[clarithromycin, 6-O-methylerythromycin A]", "values": [{"measurement": "solubility", "setting": "in the stomach (pH 1.2)", "result": "very soluble"}, {"measurement": "solubility", "setting": "lower small intestine (pH 6 to 8)", "result": "solubility decreases"}, {"measurement": "solubility", "setting": "upper region of the small intestine (pH 5.0)", "result": "fairly soluble"}]}]}
